Reference: EP0319316A2, “Griseolic acid monoesters, their preparation and use” (SANKYO COMPANY LIMITED, priority 1987, dated 1989)
Counter-ions that a name gives are not always drawn. Like-named read-outs stand apart in the source and are kept apart here.

Key:
normal rabbits = experiment: Intraocular pressure reduction in normal rabbits (Experiment 1); type: in vivo, male New Zealand white rabbits
Experimental: In the following Experiments 1 to 6, the test animals used were male New Zealand white rabbits, each weighing about 2.5 kg, raised in a room where the room temperature, relative humidity and lighting time were controlled to be 23° C, 60% and from 07:00 to 19:00, respectively. The animals were chosen from those where no abnormalities could be detected in their eyes by observation with the naked eye. They were given water freely but feed was restricted. The reduction in intraocular pressure (IOP) caused by the compounds of the present invention was investigated using groups of three male New Zealand white rabbits for each test. The compounds of the present invention were employed as solutions dissolved in a 50 mM phosphate buffer (pH 7.0) containing 0.4% w/v of sodium chloride which were adjusted to concentrations of about 1% w/v of the compound under test. Both eyes of each rabbit were anesthetized with eye drops containing an ophthalmic anesthetic (0.4% Benoxil, available from Santen Pharmaceutical Co., Ltd.), and then the IOP in each eye was measured by means of a PTG (Pneumatonograph: Alcon). The test substance was then instilled into either the left eye or the right eye (the eye to be tested) in an amount of 50 µℓ (in the case of 0.5% timolol, a known compound used for comparison, the amount was 30 µℓ). Sixty minutes after this instillation, the same amount of the same test compound was instilled into the same eye of each test animal. On the other hand, no instillation was effected into the other eye of each animal, which was used as a control eye. The IOP values of both eyes were measured 30,60,90,120,150 and 180 minutes, after the initial instillation of the test substance. The IOP reduction at each time of measurement caused by each test substance was calculated from the following equation: Intraocular pressure reduction (Ap, mmHg) = (Ic - It) - (Ic° - It°), • in which: • Ic the IOP of the control eye; • It is the IOP of the test eye; • Ic° the IOP of the control eye immediately before the initial instillation; and • It° is the IOP of the test eye immediately before the initial instillation. The average value of the IOP reduction at each time of measurement was calculated to obtain the intraocular reduction (Ap, mmHg) of the test substance. The results are reported as a ratio of the Δp of the test substance to that of the known substance, 0.5% timolol, which is, therefore, taken as 1.

Balb/3T3 cells [1] = conditions: 10 min, 500 µM
Experimental: (§1) Balb/3T3 cells were incubated in Dulbecco's modified Eagle medium (glucose-rich) containing 100/o v/v bovine fetal serum. […] The sample was then dissolved in a buffer solution prepared by the further addition of 4 mM of calcium chloride to the buffer solution mentioned above. If the sample was difficult to dissolve in water, it was dissolved first in dimethyl sulphoxide (DMSO) and then the resulting solution was diluted with the buffer (the final concentration of DMSO was determined to be 0.1%). The cell suspension was preincubated at 30° C for 5 minutes, and 100 µℓ of this suspension were added to 100 µℓ of the sample solution to initiate enzymatic reaction. After incubation at 30° C for 10 minutes, 20 µℓ of 1 N aqueous hydrochloric acid was added to stop the reaction. The reaction mixture was then centrifuged at 3000 rpm for 3 minutes to obtain 100 µℓ of the supernatant. Cyclic 3',5'-adenosine monophosphate (cAMP) contained in the supernatant was quantitatively analyzed by radioimmunoassay using a Yamasa cAMP radioimmunoassay kit YSI-7701. The CAMP accumulating effect is reported as the ratio between the value measured using a test compound and that measured in the control.

Balb/3T3 cells [2] = experiment: cAMP accumulation in Balb/3T3 cells, radioimmunoassay (Experiment 5)
Experimental: as §1

IOP = IOP lowering effect, area between IOP-time curves (Experiment 6); type: in vivo, male New Zealand white rabbits; conditions: 25 µℓ three times every 2 minutes, ratio of areas between IOP lines
Experimental: In the following Experiments 1 to 6, the test animals used were male New Zealand white rabbits, each weighing about 2.5 kg, raised in a room where the room temperature, relative humidity and lighting time were controlled to be 23° C, 60% and from 07:00 to 19:00, respectively. The animals were chosen from those where no abnormalities could be detected in their eyes by observation with the naked eye. They were given water freely but feed was restricted.
The compound under test was dissolved in 100 mM of a sodium phosphate buffer solution (pH 7.2) containing a small amount of a 0.1 N aqueous solution of sodium hydroxide. In the case of timolol maleate, a 0.5% w/v eye lotion (Timoptol 0.5%, Santen Pharm. Co.) was used as such.
The cornea of the rabbit was anesthetized by the topical application of one or two drops of 0.4% oxybuprocaine hydrochloride. The IOP was measured two or three times for each eye and the mean value was calculated and is reported as the IOP value. After the IOP of the rabbit eye had been measured, 25 µℓ of the sample solution was applied to center of the cornea of one eye three times every 2 minutes. The other eye was treated with the vehicle alone in a similar way. The IOP of both eyes was then measured.
IOP values obtained from both eyes were plotted against times after application and the area enclosed by the two IOP lines (with and without the active compound) was calculated. The IOP lowering effect of each sample was expressed as a ratio of the area described above to that of 0.5^0/o timolol.

[3] = system: Normal intraocular pressure; experiment: Normal intraocular pressure lowering effect (Experiment 3); type: in vivo, male New Zealand white rabbits; conditions: 0.5% timolol maleate applied to the eye
Experimental: In the following Experiments 1 to 6, the test animals used were male New Zealand white rabbits, each weighing about 2.5 kg, raised in a room where the room temperature, relative humidity and lighting time were controlled to be 23° C, 60% and from 07:00 to 19:00, respectively. The animals were chosen from those where no abnormalities could be detected in their eyes by observation with the naked eye. They were given water freely but feed was restricted. The compound under test was dissolved in 100 mM of a sodium phosphate buffer solution (pH 7.2) containing a small amount of a 0.1 N aqueous solution of sodium hydroxide. In the case of timolol maleate, a 0.5% w/v eye lotion (Timoptol 0.5%, Santen Pharm. Co.) was used as such. The corneal surface was anesthetized by the application of oxybuprocain hydrochloride (Benoxil 0.4% solution, Santen Pharm. Co.), and the IOP was measured by means of an Alcon Applanation Pneumatograph (Japan Alcon) in rabbits. The measurements were carried out 2 or 3 times for each eye, and the mean value was calculated and is regarded as the value of IOP. After determination of the IOP, 25 µℓ of a sample solution was applied to one eye (test eye) three times every two minutes, and the same volume of the vehicle alone was applied to the other eye (control eye). The values of IOP of both eyes were measured with the passage of time. In this Experiment, the test compound was the compound of Example 19(b).

[4] = system: water load-induced elevation of intraocular pressure; experiment: Effect on water load-induced elevation of intraocular pressure, water load test (Experiment 2); type: in vivo, male New Zealand white rabbits; conditions: 0.5% timolol maleate; water load test
Experimental: In the following Experiments 1 to 6, the test animals used were male New Zealand white rabbits, each weighing about 2.5 kg, raised in a room where the room temperature, relative humidity and lighting time were controlled to be 23° C, 60% and from 07:00 to 19:00, respectively. The animals were chosen from those where no abnormalities could be detected in their eyes by observation with the naked eye. They were given water freely but feed was restricted. The compound under test was dissolved in 100 mM of a sodium phosphate buffer solution (pH 7.2) containing a small amount of a 0.1 N aqueous solution of sodium hydroxide. In the case of timolol maleate, a 0.5% w/v eye lotion (Timoptol 0.5%, Santen Pharm. Co.) was used as such. Each rabbit was anesthetized with urethane (1.0 g/kg, i.v.), and the IOP values of both eyes were measured. Immediately thereafter, 50 µℓ of the sample solution was applied to one eye (test eye). To the other eye (control eye), 50 µℓ of the vehicle alone was applied. Ninety minutes after this application, the values of IOP were measured and then the water load test was performed as follows. Sixty ml/kg of tap water was given compulsorily per os to the anesthetized rabbit, and then the values of IOP for both eyes were measured with the passage of time. In this Experiment, the test compound was the compound of Example 19(b), i.e. 9'-(4-acetoxybenzyl) griseolate.

[5] = drug concentration 1.0 %, 50 µℓ instilled at 0 and 60 min, average over 30-180 min, ratio to 0.5% timolol taken as 1

“8'-Pivaloyloxyrnethyl griseolate [Example 10]” was tested, and the “Intraocular pressure reduction relative to 0.5% timolol” value (normal rabbits; [5]) was 1.08.

For “9'-(1-Pivaloyloxyethyl) griseolate [Example 5]”, the “Intraocular pressure reduction relative to 0.5% timolol” value (normal rabbits; [5]) was 0.92.

Work on “9'-(3,4-Diacetoxybenzyl) griseolate [Example 22(b)]” yielded a cAMP accumulating effect (Balb/3T3 cells [1]) of 8.3.

Compound “9'-(4-Acetoxy-3-methoxybenzyl) 7'-deoxygriseolate [Example 37]” has a cAMP accumulating effect (Balb/3T3 cells [2]; Concentration 500 µM, ratio of value with test compound to control, 30° C, 10 minutes) of 16.

In the case of “9'-(4-Acetoxy-3-methoxybenzyl) griseolate [Example 26(b)]”, the “IOP Lowering Effect (Ratio to 0.5% timolol)” value (IOP; Concentration 0.5 %) is reported as 3.29.

“9'-Pivaloyloxymethyl griseolate [Example 1]” was tested, and the “Intraocular pressure reduction relative to 0.5% timolol” value (normal rabbits; [5]) was 2.38.

With “9'-[1-(Isopropoxycarbonyloxy)ethyl] griseolate [Example 2]” the “Intraocular pressure reduction relative to 0.5% timolol” value (normal rabbits; [5]) was 1.24.

For `Cc1oc(=O)oc1COC(=O)C12C=C(C(O)C(=O)O)OC1C(O)C(n1cnc3c(N)ncnc31)O2` (centres unmarked) [Example 3, 9'-(5-Methyl-2-oxo-1,3-dioxolen-4-yl)methyl griseolate], the “Intraocular pressure reduction relative to 0.5% timolol” value (normal rabbits; [5]) was 0.90.

For `CCCC(=O)OC(C)OC(=O)C12C=C(C(O)C(=O)O)OC1C(O)C(n1cnc3c(N)ncnc31)O2` (centres unmarked) [Example 7, 9'-(1-Butyryloxyethyl) griseolate], the “Intraocular pressure reduction relative to 0.5% timolol” value (normal rabbits; [5]) was 0.79.

`CC(C)(C)C(=O)Oc1ccc(COC(=O)C23C=C(C(O)C(=O)O)OC2C(O)C(n2cnc4c(N)ncnc42)O3)cc1` (centres unmarked) [Example 21(b), 9'-(4-Pivaloyloxybenzyl) griseolate] showed a cAMP accumulating effect (Balb/3T3 cells [1]) of 8.5.

For `CC(C)C(=O)Oc1ccc(COC(=O)C2=CC3(C(O)C(=O)O)OC(n4cnc5c(N)ncnc54)C(O)C3O2)cc1` (centres unmarked) [Example 23(b), 9'-(4-lsobutyryloxybenzyl) griseolate], the “IOP Lowering Effect (Ratio to 0.5% timolol)” value (IOP; Concentration 0.03 %) was 1.62.

For `CC(=O)Oc1ccccc1C=CCOC(=O)C12C=C(C(O)C(=O)O)OC1C(O)C(n1cnc3c(N)ncnc31)O2` (centres unmarked) [Example 31(b), 9'-(2-Acetoxycinnamyl) griseolate], the “IOP Lowering Effect (Ratio to 0.5% timolol)” value (IOP; Concentration 0.5 %) was 1.88.

For `CC(=O)Oc1ccc(COC(=O)C(O)C2=CC3(C(=O)O)OC(n4cnc5c(N)ncnc54)C(O)C3O2)cc1` (centres unmarked) [Example 34, 8'-(4-Acetoxybenzyl) griseolate], the cAMP accumulating effect (Balb/3T3 cells [1]) was 16.

`COc1cc(COC(=O)C(O)C2=CC3(C(=O)O)OC(n4cnc5c(N)ncnc54)C(O)C3O2)ccc1OC(C)=O` (centres unmarked) [Example 35, 8'-(4-Acetoxy-3-methoxybenzyl) griseolate] was tested, and the cAMP accumulating effect (Balb/3T3 cells [1]) was 18.

For `CC(=O)Oc1ccc(COC(=O)C23C=C(CC(=O)O)OC2C(O)C(n2cnc4c(N)ncnc42)O3)cc1` (centres unmarked) [Example 36, 9'-(4-Acetoxybenzyl) 7'-deoxygriseolate], the cAMP accumulating effect (Balb/3T3 cells [1]) was 16.

For `Nc1ncnc2c1ncn2[C@@H]1OC2=C[C@@](C(=O)O)(C(O)C(=O)O)O[C@H]2[C@H]1O` (some centres unmarked) [Griseolic acid], the fold induction at 500 µM (Balb/3T3 cells [2]; Mus musculus, BALB/3T3, 10 min, read-out: cAMP accumulating effect) was 3.5 and the “Intraocular pressure reduction relative to 0.5% timolol” value (normal rabbits; [5]) was -0.12.

With `CC(C)(C)NC[C@H](O)COc1nsnc1N1CCOCC1` [timolol maleate, reference compound] the “significant lowering of IOP” value [3] was “only observed 2 hours after application” and the “difference of IOP between the control eye and the test eye” value [4] was “no significant difference”.

`CC(C)(C)NC[C@H](O)COc1nsnc1N1CCOCC1` [timolol, reference compound] was tested, and the “Intraocular pressure reduction relative to 0.5% timolol” value (normal rabbits; drug concentration 0.5 %, 30 µℓ instilled at 0 and 60 min, reference, taken as 1) was 1.0.
